{
  "source": "patent US8598344B2",
  "about": "“CDKI pathway inhibitors and uses thereof” (Senex Biotechnology, priority 2009, dated 2013)",
  "key": {"[1]": {"test_system": "induction of transcription by p21 (CDKI pathway, CMV promoter-GFP) in HT1080 fibrosarcoma cells", "test": "Cellular assay for CDKI pathway inhibition: CMV-GFP induction by IPTG-inducible p21 in HT1080 reporter cells", "assay_type": "cell-based, human", "method": "Briefly, the reporter cell line described in the above-referenced application, which carries IPTG (isopropyl-β-thio-galactoside)-inducible p21 gene together with a p21-inducible promoter driving the expression of Green Fluorescent Protein (GFP) was plated in 96-well plates, at 2000 cells per well for the no-IPTG arm of the assay and at 5000 cells per well for the IPTG arm of the assay. To induce the maximal levels of p21, IPTG was added to 50 μM concentration. Serial 2-fold dilutions of the tested compounds were added in quadruplicates to wells with and without IPTG, ˜10 min after IPTG addition.\nThis assay is based on the induction of green fluorescent protein (GFP) expression from the cytomegalovirus (CMV) promoter in human HT1080 fibrosarcoma cells that express CDKI p21 from an isopropyl-(3-thio-galactoside (IPTG)-inducible promoter. The compound activity as a CDKI pathway inhibitor is measured by its ability to prevent the stimulation of the CMV promoter upon the addition of p21-inducing IPTG. CMV promoter activity is measured by the ratio of GFP fluorescence to the relative cell number, as determined by staining cellular DNA with Hoechst 33342. This assay was conducted in two modes. […]"}, "CDK9": {"biological_target": "T1, CDK9 (Homo sapiens, UniProt P50750)", "T1 construct": "purchased KinaseProfiler of Millipore Corporation", "test": "KinaseProfiler (Millipore) kinase inhibition", "assay_type": "biochemical", "conditions": "10 μM", "description": "(§1) This similarity led us to test SNX14 for the ability to inhibit 285 kinases, using the services of KinaseProfiler of Millipore Corporation (285 kinases). […] The KINOMEscan assay has been described in detail in Fabian et al., Nat. Biotechnol. 23: 329 (2005) and Karaman et al., Nat. Biotechnol. 26: 127 (2008).\n(§2) The KinomeScan assay is based on a competition binding assay that quantitatively measures the ability of a compound to compete with an immobilized, ATP site directed ligand. The assay is performed by combining three components: DNA-tagged kinase; immobilized ligand; and a test compound. The ability of the test compound to compete with the immobilized ligand is measured via quantitative PCR of the DNA tag. […] The CDKs tested by Millipore for inhibition with SNX14 included CDK1, CDK2, CDK3, CDK5, CDK7 and CDK9; none of these were inhibited to less than 49 percent of control (POC) activity. The CDKs tested by KinomeScan for the effect of Compound 1 included CDK2, CDK3, CDK4, CDK5, CDK7, CDK8, CDK9 and CDK19; aside from CDK8 and CDK19, the strongest inhibited CDK was CDK7 (33% POC binding). To determine the inhibition of which kinases correlates with the biological activity of SNX2-class compounds, we tested eight additional compounds of the SNX2 family, which gave different IC50 values in the cellular assays, for the ability to affect 24 kinases that were most susceptible to compound 1, through the services of KinomeScan. […] We have also determined the binding constant (Kd) for SNX14, compound 1, compound 20, compound 26, compound 43 and compound 14 in kinase assays for CDK8 and CDK19 (Table 1)."}, "CDK5": {"biological_target": "T2, CDK5 (Homo sapiens, UniProt Q00535)", "T2 construct": "purchased KinaseProfiler of Millipore Corporation", "test": "KinaseProfiler (Millipore) kinase inhibition", "assay_type": "biochemical", "conditions": "10 μM", "description": "as §1, §2"}, "CDK2": {"biological_target": "T3, CDK2 (Homo sapiens, UniProt P24941)", "T3 construct": "purchased KinaseProfiler of Millipore Corporation", "test": "KinaseProfiler (Millipore) kinase inhibition", "assay_type": "biochemical", "conditions": "10 μM", "description": "as §1, §2"}, "CDK3": {"biological_target": "T4, CDK3 (Homo sapiens, UniProt Q00526)", "T4 construct": "purchased KinaseProfiler of Millipore Corporation", "test": "KinaseProfiler (Millipore) kinase inhibition", "assay_type": "biochemical", "conditions": "10 μM", "description": "as §1, §2"}, "CDK1": {"biological_target": "T5, CDK1 (Homo sapiens, UniProt P06493)", "T5 construct": "purchased KinaseProfiler of Millipore Corporation", "test": "KinaseProfiler (Millipore) kinase inhibition", "assay_type": "biochemical", "conditions": "10 μM", "description": "as §1, §2"}, "CDK7": {"biological_target": "CDK7 (Homo sapiens, UniProt P50613)", "test": "KinaseProfiler (Millipore) kinase inhibition", "assay_type": "biochemical", "parameters": "purchased KinaseProfiler of Millipore Corporation", "conditions": "10 μM", "description": "as §1\nas §2, with “binding).” for “binding). To determine the inhibition of which kinases correlates with the biological activity of SNX2-class compounds, we tested eight additional compounds of the SNX2 family, which gave different IC50 values in the cellular assays, for the ability to affect 24 kinases that were most susceptible to compound 1, through the services of KinomeScan.”"}, "CDK19 [2]": {"biological_target": "T6, CDK19 (Homo sapiens, UniProt Q9BWU1)", "T6 construct": "purchased KinomeScan, a division of Ambit Biosciences", "T6 sequence (Q9BWU1 whole entry)": "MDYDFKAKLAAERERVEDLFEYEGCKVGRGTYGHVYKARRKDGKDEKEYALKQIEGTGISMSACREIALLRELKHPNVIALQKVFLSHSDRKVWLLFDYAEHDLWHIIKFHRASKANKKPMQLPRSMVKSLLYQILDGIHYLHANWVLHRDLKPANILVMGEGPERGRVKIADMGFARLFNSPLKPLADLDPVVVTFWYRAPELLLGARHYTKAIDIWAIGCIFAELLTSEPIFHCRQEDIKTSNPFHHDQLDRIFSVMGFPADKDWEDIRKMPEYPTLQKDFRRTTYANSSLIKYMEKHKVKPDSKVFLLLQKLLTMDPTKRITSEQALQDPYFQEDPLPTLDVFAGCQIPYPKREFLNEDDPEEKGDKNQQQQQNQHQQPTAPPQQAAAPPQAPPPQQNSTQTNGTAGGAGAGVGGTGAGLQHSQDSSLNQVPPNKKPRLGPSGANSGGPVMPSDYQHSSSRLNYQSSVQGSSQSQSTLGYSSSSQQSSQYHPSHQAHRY", "test": "KinomeScan competition binding assay", "conditions": "read-out: CDK19 inhibition (Kd)", "description": "as §1, §2"}, "CDK8": {"biological_target": "T7, CDK8 (Homo sapiens, UniProt P49336)", "T7 construct": "purchased KinomeScan, a division of Ambit Biosciences", "test": "KinomeScan competition binding assay", "conditions": "read-out: CDK8 inhibition (Kd)", "description": "as §1, §2"}, "ROCK1": {"biological_target": "T8, ROCK1 (Homo sapiens, UniProt Q13464)", "T8 construct": "purchased KinomeScan, a division of Ambit Biosciences", "T8 sequence (Q13464 whole entry)": "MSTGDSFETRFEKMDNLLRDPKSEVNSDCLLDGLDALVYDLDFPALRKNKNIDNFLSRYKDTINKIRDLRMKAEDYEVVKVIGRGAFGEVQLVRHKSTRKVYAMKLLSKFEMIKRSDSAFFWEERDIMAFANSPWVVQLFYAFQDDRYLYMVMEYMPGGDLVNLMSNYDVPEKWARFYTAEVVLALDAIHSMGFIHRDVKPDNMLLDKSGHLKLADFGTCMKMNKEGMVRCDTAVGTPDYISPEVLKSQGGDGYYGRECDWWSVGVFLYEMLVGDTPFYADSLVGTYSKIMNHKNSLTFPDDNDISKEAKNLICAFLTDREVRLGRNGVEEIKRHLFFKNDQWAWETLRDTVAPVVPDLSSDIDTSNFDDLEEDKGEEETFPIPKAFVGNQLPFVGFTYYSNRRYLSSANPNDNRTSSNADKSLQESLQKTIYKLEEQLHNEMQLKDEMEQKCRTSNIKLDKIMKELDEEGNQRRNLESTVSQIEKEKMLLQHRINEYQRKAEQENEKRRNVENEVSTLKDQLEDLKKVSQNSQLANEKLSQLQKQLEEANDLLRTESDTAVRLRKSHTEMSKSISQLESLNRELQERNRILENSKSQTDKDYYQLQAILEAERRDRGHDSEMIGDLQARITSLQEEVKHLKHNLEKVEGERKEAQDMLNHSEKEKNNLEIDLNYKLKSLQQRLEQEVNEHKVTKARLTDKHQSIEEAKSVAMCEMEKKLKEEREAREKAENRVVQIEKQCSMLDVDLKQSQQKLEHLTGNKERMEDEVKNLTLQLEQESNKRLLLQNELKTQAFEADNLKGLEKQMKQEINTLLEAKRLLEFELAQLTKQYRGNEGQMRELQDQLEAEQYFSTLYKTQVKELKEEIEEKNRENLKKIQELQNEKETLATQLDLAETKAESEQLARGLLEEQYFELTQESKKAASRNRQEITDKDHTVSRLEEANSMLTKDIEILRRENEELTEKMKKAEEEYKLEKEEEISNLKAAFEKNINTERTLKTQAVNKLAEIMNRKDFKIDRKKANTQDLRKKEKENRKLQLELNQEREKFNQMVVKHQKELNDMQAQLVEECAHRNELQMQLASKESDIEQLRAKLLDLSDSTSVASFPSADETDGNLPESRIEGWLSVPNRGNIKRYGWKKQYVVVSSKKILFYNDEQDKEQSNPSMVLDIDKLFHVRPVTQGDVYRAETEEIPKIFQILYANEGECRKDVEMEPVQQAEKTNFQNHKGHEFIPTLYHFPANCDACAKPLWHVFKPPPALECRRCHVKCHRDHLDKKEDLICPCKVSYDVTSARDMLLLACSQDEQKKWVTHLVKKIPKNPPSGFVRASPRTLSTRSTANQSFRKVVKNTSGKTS", "conditions": "cited from earlier work"}, "PKACb": {"biological_target": "T9, PKACb (Homo sapiens, UniProt P22694)", "T9 construct": "purchased KinomeScan, a division of Ambit Biosciences", "conditions": "10 μM; data from Cee et al. (2009); cited from earlier work"}, "CDK19 [3]": {"biological_target": "T6, CDK19", "conditions": "cited from earlier work"}, "[4]": {"test_system": "human umbilical vein endothelial cells (HUVECs)", "conditions": "Aoki et al., 2007; read-out: IC50, proliferation of HUVECs; cited from earlier work"}, "PKACa": {"biological_target": "T10, PKACa (Homo sapiens, UniProt P17612)", "T10 construct": "purchased KinomeScan, a division of Ambit Biosciences", "conditions": "10 μM; data from Cee et al. (2009); cited from earlier work"}, "LTK": {"biological_target": "T11, LTK (Homo sapiens, UniProt P29376)", "T11 construct": "purchased KinomeScan, a division of Ambit Biosciences", "conditions": "10 μM; data from Cee et al. (2009); cited from earlier work"}, "CIT": {"biological_target": "T12, CIT (Homo sapiens, UniProt O14578)", "T12 construct": "purchased KinomeScan, a division of Ambit Biosciences", "conditions": "10 μM; data from Cee et al. (2009); cited from earlier work"}, "ROCK2": {"biological_target": "T13, ROCK2 (Homo sapiens, UniProt O75116)", "T13 construct": "purchased KinomeScan, a division of Ambit Biosciences", "T13 sequence (O75116 whole entry)": "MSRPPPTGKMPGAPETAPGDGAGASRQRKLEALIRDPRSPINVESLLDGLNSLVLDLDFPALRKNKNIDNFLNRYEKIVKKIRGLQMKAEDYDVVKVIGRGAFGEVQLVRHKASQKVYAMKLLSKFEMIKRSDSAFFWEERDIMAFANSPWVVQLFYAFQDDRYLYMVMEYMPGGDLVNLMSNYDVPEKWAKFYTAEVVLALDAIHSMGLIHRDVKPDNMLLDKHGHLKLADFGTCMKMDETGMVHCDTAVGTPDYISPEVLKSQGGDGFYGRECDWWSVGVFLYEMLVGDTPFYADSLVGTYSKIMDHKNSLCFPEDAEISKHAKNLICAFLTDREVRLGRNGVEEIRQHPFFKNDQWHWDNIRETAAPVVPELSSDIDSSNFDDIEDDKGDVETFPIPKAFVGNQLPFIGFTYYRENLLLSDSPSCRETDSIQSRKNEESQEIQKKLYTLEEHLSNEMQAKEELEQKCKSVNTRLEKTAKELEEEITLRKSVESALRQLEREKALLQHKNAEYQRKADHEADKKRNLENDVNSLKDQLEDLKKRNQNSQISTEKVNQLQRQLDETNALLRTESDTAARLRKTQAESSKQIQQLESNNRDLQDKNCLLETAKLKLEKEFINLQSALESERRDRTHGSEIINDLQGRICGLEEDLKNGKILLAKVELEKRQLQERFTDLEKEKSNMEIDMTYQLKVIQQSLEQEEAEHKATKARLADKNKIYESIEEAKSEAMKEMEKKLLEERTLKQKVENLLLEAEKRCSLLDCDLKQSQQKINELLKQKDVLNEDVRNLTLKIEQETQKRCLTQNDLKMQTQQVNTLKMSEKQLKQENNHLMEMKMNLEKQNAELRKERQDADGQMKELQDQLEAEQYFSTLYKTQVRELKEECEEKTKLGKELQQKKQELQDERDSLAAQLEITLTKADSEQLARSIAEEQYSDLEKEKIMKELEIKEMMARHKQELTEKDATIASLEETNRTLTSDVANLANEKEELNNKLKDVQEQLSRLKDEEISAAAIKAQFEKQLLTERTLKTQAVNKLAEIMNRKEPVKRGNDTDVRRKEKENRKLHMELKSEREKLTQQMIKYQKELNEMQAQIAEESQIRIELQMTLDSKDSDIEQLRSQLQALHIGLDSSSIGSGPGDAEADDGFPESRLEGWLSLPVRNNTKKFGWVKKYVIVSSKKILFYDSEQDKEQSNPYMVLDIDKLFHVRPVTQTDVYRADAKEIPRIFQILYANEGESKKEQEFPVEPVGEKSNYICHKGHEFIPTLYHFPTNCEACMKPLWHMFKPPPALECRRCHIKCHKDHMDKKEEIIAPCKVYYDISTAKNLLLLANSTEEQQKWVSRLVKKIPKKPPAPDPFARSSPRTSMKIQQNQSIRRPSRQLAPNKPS", "conditions": "cited from earlier work"}, "ALK": {"biological_target": "T14, ALK (Homo sapiens, UniProt Q9UM73)", "T14 construct": "purchased KinomeScan, a division of Ambit Biosciences", "conditions": "10 μM; data from Cee et al. (2009); cited from earlier work"}, "RIOK2": {"biological_target": "T15, RIOK2 (Homo sapiens, UniProt Q9BVS4)", "T15 construct": "purchased KinomeScan, a division of Ambit Biosciences", "conditions": "10 μM; data from Cee et al. (2009); cited from earlier work"}, "PIM2": {"biological_target": "T16, PIM2 (Homo sapiens, UniProt Q9P1W9)", "T16 construct": "purchased KinomeScan, a division of Ambit Biosciences", "conditions": "10 μM; data from Cee et al. (2009); cited from earlier work"}, "ROS1": {"biological_target": "T17, ROS1 (Homo sapiens, UniProt P08922)", "T17 construct": "purchased KinomeScan, a division of Ambit Biosciences", "conditions": "10 μM; data from Cee et al. (2009); cited from earlier work"}, "CLK4": {"biological_target": "T18, CLK4 (Homo sapiens, UniProt Q9HAZ1)", "T18 construct": "purchased KinomeScan, a division of Ambit Biosciences", "conditions": "10 μM; data from Cee et al. (2009); cited from earlier work"}, "JNK1": {"biological_target": "T19, JNK1 (Homo sapiens, UniProt P45983)", "T19 construct": "purchased KinomeScan, a division of Ambit Biosciences", "T19 sequence (P45983 whole entry)": "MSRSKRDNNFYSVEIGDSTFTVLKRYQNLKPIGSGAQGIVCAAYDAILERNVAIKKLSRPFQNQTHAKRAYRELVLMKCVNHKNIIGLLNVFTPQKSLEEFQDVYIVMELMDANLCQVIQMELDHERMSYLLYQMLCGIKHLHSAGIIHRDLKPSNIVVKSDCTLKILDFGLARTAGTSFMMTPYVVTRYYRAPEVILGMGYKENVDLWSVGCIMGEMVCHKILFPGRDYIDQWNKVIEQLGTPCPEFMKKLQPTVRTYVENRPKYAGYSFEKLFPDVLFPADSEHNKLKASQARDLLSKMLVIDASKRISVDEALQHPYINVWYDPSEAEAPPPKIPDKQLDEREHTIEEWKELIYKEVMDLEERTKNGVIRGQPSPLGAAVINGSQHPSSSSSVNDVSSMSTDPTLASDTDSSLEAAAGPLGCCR", "conditions": "10 μM; data from Cee et al. (2009); cited from earlier work"}, "[5]": {"test_system": "several other types of human cells", "conditions": "Aoki et al., 2007; read-out: antiproliferative activity against several other types of human cells; cited from earlier work"}, "PRKG2": {"biological_target": "T20, PRKG2 (Homo sapiens, UniProt Q13237)", "T20 construct": "purchased KinomeScan, a division of Ambit Biosciences", "conditions": "10 μM; data from Cee et al. (2009); cited from earlier work"}, "MET": {"biological_target": "T21, MET (Homo sapiens, UniProt P08581)", "T21 construct": "purchased KinomeScan, a division of Ambit Biosciences", "T21 sequence (P08581 25-1390)": "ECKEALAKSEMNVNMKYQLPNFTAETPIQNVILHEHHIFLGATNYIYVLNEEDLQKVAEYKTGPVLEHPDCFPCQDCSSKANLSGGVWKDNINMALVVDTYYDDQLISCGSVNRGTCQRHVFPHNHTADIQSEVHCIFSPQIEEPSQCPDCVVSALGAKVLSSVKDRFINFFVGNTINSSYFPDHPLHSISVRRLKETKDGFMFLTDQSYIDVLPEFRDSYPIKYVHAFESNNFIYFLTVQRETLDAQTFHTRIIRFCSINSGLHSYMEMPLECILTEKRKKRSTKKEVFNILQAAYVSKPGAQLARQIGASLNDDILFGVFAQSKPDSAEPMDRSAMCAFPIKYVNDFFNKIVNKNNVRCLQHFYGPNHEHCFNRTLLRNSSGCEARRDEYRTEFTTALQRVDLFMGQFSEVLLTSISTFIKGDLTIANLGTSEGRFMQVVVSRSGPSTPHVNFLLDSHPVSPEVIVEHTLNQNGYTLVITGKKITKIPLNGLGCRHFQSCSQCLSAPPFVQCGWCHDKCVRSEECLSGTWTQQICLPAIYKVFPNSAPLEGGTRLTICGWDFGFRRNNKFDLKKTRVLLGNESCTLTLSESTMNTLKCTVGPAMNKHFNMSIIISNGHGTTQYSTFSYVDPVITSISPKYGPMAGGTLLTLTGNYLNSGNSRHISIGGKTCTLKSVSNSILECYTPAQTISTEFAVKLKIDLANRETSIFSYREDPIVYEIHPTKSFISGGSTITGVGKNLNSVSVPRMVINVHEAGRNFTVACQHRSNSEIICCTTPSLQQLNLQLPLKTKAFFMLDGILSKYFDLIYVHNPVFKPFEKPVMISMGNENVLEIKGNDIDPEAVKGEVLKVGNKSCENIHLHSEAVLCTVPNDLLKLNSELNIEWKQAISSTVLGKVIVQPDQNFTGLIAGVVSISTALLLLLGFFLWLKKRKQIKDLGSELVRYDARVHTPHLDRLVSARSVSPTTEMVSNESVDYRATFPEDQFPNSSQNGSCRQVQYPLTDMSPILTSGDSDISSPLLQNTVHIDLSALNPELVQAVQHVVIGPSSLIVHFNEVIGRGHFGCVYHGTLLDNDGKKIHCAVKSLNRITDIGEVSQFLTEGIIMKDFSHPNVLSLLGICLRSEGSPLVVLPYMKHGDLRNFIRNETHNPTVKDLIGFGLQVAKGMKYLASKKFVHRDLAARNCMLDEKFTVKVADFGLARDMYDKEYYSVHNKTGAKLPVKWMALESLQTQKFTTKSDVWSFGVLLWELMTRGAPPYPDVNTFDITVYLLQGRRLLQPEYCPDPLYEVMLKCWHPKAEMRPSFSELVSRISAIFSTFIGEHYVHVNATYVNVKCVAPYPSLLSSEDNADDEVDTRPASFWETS", "conditions": "10 μM; data from Cee et al. (2009); cited from earlier work"}, "[6]": {"conditions": "10 μM, data from Cee et al. (2009)"}},
  "note": "pIC50, pKd: −log10 of the molar value. Where two headings read alike, the source gives them in different places.",
  "data": [
    {"molecule": "COc1cc2ncnc(Nc3ccc(F)c(Cl)c3)c2cc1OCCCN1CCOCC1", "note": "[gefitinib, reference compound]", "values": [
      {"measurement": "CDKI pathway inhibition", "setting": "[1]", "result": "inactive"}
    ]},
    {"molecule": "CC(C)Nc1ncnc2ccc(I)cc12", "note": "[SNX14]", "values": [
      {"measurement": "percent of control (POC) activity, CDK9", "setting": "CDK9", "result": "≥ 49% of control (POC)"},
      {"measurement": "percent of control (POC) activity, CDK5", "setting": "CDK5", "result": "≥ 49% of control (POC)"},
      {"measurement": "percent of control (POC) activity, CDK2", "setting": "CDK2", "result": "≥ 49% of control (POC)"},
      {"measurement": "percent of control (POC) activity, CDK3", "setting": "CDK3", "result": "≥ 49% of control (POC)"},
      {"measurement": "percent of control (POC) activity, CDK1", "setting": "CDK1", "result": "≥ 49% of control (POC)"},
      {"measurement": "percent of control (POC) activity, CDK7", "setting": "CDK7", "result": "≥ 49% of control (POC)"},
      {"measurement": "pIC50", "setting": "[1]; Table 1, IC50 calculated on the basis of the maximal inhibition produced by the highest doses, IPTG mode (50 μM or 2 μM) not stated, read-out: Cell-based assay (IC50)", "result": 5.19},
      {"measurement": "pKd", "setting": "CDK19 [2]", "result": 5.42},
      {"measurement": "pKd", "setting": "CDK8", "result": 5.00}
    ]},
    {"molecule": "Ic1ccc2ncnc(NCCc3ccccc3)c2c1", "note": "[compound 3]", "values": [
      {"measurement": "pIC50", "setting": "[1]; read-out: IC50, p21 induced by 8 μM IPTG, 8 μM IPTG, 72 hours", "result": 5.73}
    ]},
    {"molecule": "cortistatin A", "values": [
      {"measurement": "POC, ROCK1", "setting": "ROCK1; [6]", "result": 21, "unit": "POC"},
      {"measurement": "pKd", "setting": "ROCK1; Cee et al. (2009), read-out: Kd ROCK I", "result": 6.60},
      {"measurement": "POC, PKACb", "setting": "PKACb", "result": 13, "unit": "POC"},
      {"measurement": "POC, CDK19", "setting": "CDK19 [3]; [6]", "result": 0.1, "unit": "POC"},
      {"measurement": "pKd", "setting": "CDK19 [3]; Cee et al. (2009)", "result": 8.00},
      {"measurement": "pIC50", "setting": "[4]", "result": 8.74},
      {"measurement": "POC, PKACa", "setting": "PKACa", "result": 8.7, "unit": "POC"},
      {"measurement": "POC, LTK", "setting": "LTK", "result": 2.9, "unit": "POC"},
      {"measurement": "POC, CIT", "setting": "CIT", "result": 28, "unit": "POC"},
      {"measurement": "POC, ROCK2 (ROCK II)", "setting": "ROCK2; [6]", "result": 0, "unit": "POC"},
      {"measurement": "pKd", "setting": "ROCK2; Cee et al. (2009), read-out: Kd ROCK II", "result": 6.66},
      {"measurement": "POC, ALK", "setting": "ALK", "result": 4.4, "unit": "POC"},
      {"measurement": "POC, RIOK2", "setting": "RIOK2", "result": 21, "unit": "POC"},
      {"measurement": "POC, PIM2", "setting": "PIM2", "result": 4.4, "unit": "POC"},
      {"measurement": "POC, ROS1", "setting": "ROS1", "result": 26, "unit": "POC"},
      {"measurement": "POC, CLK4", "setting": "CLK4", "result": 26, "unit": "POC"},
      {"measurement": "POC, JNK1", "setting": "JNK1", "result": 29, "unit": "POC"},
      {"measurement": "pIC50", "setting": "[5]", "result": "5.15 to 5.22"},
      {"measurement": "POC, PRKG2", "setting": "PRKG2", "result": 21, "unit": "POC"},
      {"measurement": "POC, MET", "setting": "MET", "result": 18, "unit": "POC"}
    ]}
  ]
}
